The values below come from ChEMBL document CHEMBL1136590, “Synthesis, spectral studies and screening for amoebicidal activity of new palladium(II) complexes derived from thiophene-2-carboxaldehyde thiosemicarbazones” (Bioorg Med Chem Lett, 2003).

As a reminder, the pIC50 is −log10 of the IC50, conventionally taken in molar units.

The subject of the experiment is Entamoeba histolytica. Put plainly: In vitro amoebicidal activity against HM-1:1MMS strain of Entamoeba histolytica. In kind it is functional, organism-based.

pIC50: −log10 of the molar value.

Under “Entamoeba histolytica”, `Fc1cccc(F)c1/N=C(\S)N/N=C/c1cccs1` gave a pIC50 of 5.24.
Still for that read-out and setting: next, `S=C(NCc1ccccc1Cl)N/N=C/c1cccs1`: 5.24.
`Fc1ccc(/N=C(\S)N/N=C/c2cccs2)c(F)c1` showed a negative-log IC50 (pIC50) (Entamoeba histolytica) of 5.21.
Turning to `S=C(N/N=C/c1cccs1)N1CCCc2ccccc21`, the pIC50 (Entamoeba histolytica) is 5.56.
As to `S=C(N/N=C/c1cccs1)N1CCCC1`, the pIC50 (Entamoeba histolytica) is 5.49. This pIC50 and that of the compound before are within 0.2 log units of each other.
Compound “3,4-Dihydro-2H-quinoline-1-carbothioic acid thiophen-2-ylmethylene-hydrazide with PdCl2 complex” had a pIC50 of 5.94.
Consider `Cc1ncc([N+](=O)[O-])n1CCO` [METRONIDAZOLE], for which, for the setting “Entamoeba histolytica”, the pIC50 was 5.69.
“Di(methylsulfinyl)methane with PdCl2 complex” showed a pIC50 of 5.08.
The compound “thiophene-2-carbaldehyde N-(2,4-difluorophenyl)thiosemicarbazone with PdCl2 complex” gave a negative-log IC50 (pIC50) of 5.58.
As to “thiophene-2-carbaldehyde N-(2,6-difluorophenyl)thiosemicarbazone with PdCl2 complex”, the negative-log IC50 (pIC50) was 5.62.
As for “thiophene-2-carbaldehyde N-(2-chlorobenzyl)thiosemicarbazone with PdCl2 complex”, the pIC50 is 5.51.
